# Results: patent US20110081315A1, “NOVEL MACROCYCLIC INHIBITORS OF HEPATITIS C VIRUS REPLICATION” (INTERMUNE, INC., priority 2009, published 2011)
# Legend:
# hepatitis C replicon = hepatitis C replicon EC50 assay; format: cell-based; conditions: Hepatitis C virus; hepatitis C replicon; read-out: EC50
# Source text: (§1) NS3-NS4 inhibition activity can be determined using known assay methods. For example, NS3/NS4 complexes may be formed and inhibitory concentrations of test compounds determined as described in U.S. Patent Application Publication Number 2007/0054842 paragraph numbers 1497-1509, which is incorporated herein by reference in its entirety. Similarly, hepatitis C replicon EC50 may be determined using known assay methods such as described in U.S. Patent Application Publication Number 2007/0054842 paragraph numbers 1510-1515, which is incorporated herein by reference in its entirety. Assays may be conducted at ambient temperature (23° C.) in assay buffer containing 50 mM Tris-HCl, pH 7.5, 15% glycerol, 0.6 mM Lauryldimethylamine Oxide (LDAO), 25 μM NS4A peptide, and 10 mM Dithiothreitol (DTT).
# NS3/NS4 complexes = NS3/NS4 complexes (Hepatitis C virus genotype 1a, UniProt P27958); experiment: NS3/NS4 inhibition assay (IC50); format: biochemical; conditions: NS3/NS4 activity; 23° C., 25 μM NS4A peptide
# Source text: as §1
# Chain of NS3/NS4 complexes (P27958 1027-1657, one chain of several): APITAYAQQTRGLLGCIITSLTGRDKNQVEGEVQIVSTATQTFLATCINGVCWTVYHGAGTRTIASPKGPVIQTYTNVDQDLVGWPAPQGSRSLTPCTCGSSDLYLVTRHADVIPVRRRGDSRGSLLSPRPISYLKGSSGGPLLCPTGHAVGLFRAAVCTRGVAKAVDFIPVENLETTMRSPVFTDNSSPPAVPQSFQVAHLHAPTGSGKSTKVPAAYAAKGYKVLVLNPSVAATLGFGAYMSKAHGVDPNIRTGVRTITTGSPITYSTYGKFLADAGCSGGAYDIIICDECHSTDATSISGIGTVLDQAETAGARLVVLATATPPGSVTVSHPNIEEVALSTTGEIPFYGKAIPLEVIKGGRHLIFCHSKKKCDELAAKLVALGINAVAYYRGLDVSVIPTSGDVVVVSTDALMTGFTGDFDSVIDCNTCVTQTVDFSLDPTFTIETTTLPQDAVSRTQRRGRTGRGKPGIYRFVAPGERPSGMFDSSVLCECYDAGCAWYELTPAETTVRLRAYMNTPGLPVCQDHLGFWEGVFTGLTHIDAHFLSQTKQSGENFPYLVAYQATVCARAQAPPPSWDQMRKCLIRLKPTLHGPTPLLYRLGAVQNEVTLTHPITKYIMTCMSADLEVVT
SMILES,EC50 (hepatitis C replicon) [nM],IC50 (NS3/NS4 complexes) [nM]
CCn1c(O[C@@H]2C[C@H]3C(=O)N[C@]4(C(=O)NS(=O)(=O)N(C)C)C[C@H]4/C=C\CCCCC[C@H](NC(=O)OC(C)(C)C)C(=O)N3C2)nc2c(-c3nc(-c4ccccc4)cs3)cccc21 [Compound 1431],10 to 100,< 10
CC(C)n1c(O[C@@H]2C[C@H]3C(=O)N[C@]4(C(=O)NS(=O)(=O)N(C)C)C[C@H]4/C=C\CCCCC[C@H](NC(=O)OC(C)(C)C)C(=O)N3C2)nc2c(-c3ncco3)cccc21 [Compound 227],< 10,< 10
CC(C)n1c(O[C@@H]2C[C@H]3C(=O)N[C@]4(C(=O)NS(=O)(=O)N5CCC5)C[C@H]4/C=C\CCCCC[C@H](NC(=O)OC(C)(C)C)C(=O)N3C2)nc2c(-c3nc(C4CCCC4)cs3)cccc21 [Compound 1745],10 to 100,< 10
"COc1ccc2c(O[C@@H]3C[C@H]4C(=O)N[C@]5(C(=O)NS(=O)(=O)C6(C)CC6)C[C@H]5/C=C\CCCCC[C@H](Nc5ccc(F)c(OC(F)(F)F)c5)C(=O)N4C3)cc(-c3nc(C(C)C)cs3)nc2c1C (single isomer, unassigned) [Compound 601]",< 10,< 10
CC(C)n1c(O[C@@H]2C[C@H]3C(=O)N[C@]4(C(=O)NS(=O)(=O)C5(C)CC5)C[C@H]4/C=C\CCCCC[C@H](NC(=O)OC4COC4)C(=O)N3C2)nc2c(-c3nc(C4CCCC4)cs3)cccc21 [Compound 1414],< 10,< 10
Cc1ccccc1-c1csc(-c2cccc3c2nc(O[C@@H]2C[C@H]4C(=O)N[C@]5(C(=O)NS(=O)(=O)N(C)C)C[C@H]5/C=C\CCCCC[C@H](NC(=O)OC(C)(C)C)C(=O)N4C2)n3C(C)C)n1 [Compound 1748],10 to 100,< 10
COc1ccc2c(O[C@@H]3C[C@H]4C(=O)N[C@]5(C(=O)NS(=O)(=O)C6(C)CC6)C[C@H]5/C=C\CCCCC[C@H](Nc5cccc(-c6ncco6)c5)C(=O)N4C3)cc(-c3nc(C(C)C)cs3)nc2c1C [Compound 128],< 10,< 10
CC(C)c1nc2ccccc2nc1O[C@@H]1C[C@H]2C(=O)N[C@]3(C(=O)NS(=O)(=O)N(C)C)C[C@H]3/C=C\CCCCC[C@H](NC(=O)OC(C)(C)C)C(=O)N2C1 [Compound 305],< 10,< 10
Cc1nc2cc(O[C@@H]3C[C@H]4C(=O)N[C@]5(C(=O)NS(=O)(=O)C6(C)CC6)C[C@H]5/C=C\CCCCC[C@H](NC(=O)OC(C)(C)C)C(=O)N4C3)ccc2o1 [Compound 1251],10 to 100,< 10
CC(C)NC(=O)Nc1cccc2c1nc(O[C@@H]1C[C@H]3C(=O)N[C@]4(C(=O)NS(=O)(=O)N(C)C)C[C@H]4/C=C\CCCCC[C@H](NC(=O)OC(C)(C)C)C(=O)N3C1)n2C(C)C [Compound 1421],< 10,< 10
CC(C)n1c(O[C@@H]2C[C@H]3C(=O)N[C@]4(C(=O)NS(=O)(=O)N(C)C)C[C@H]4/C=C\CCCCC[C@H](NC(=O)OC(C)(C)C)C(=O)N3C2)nc2c(-c3nc(C4CCCCC4)cs3)cccc21 [Compound 1770],10 to 100,< 10
CC(C)n1c(O[C@@H]2C[C@H]3C(=O)N[C@]4(C(=O)NS(=O)(=O)C5(C)CC5)C[C@H]4/C=C\CCCCC[C@H](NC(=O)OC(C)(C)C)C(=O)N3C2)nc2c(-c3nccs3)cccc21 [Compound 234],< 10,< 10
CC(C)n1c(O[C@@H]2C[C@H]3C(=O)N[C@]4(C(=O)NS(=O)(=O)C5(C)CC5)C[C@H]4/C=C\CCCCC[C@H](Nc4ccccc4)C(=O)N3C2)nc2c(C(=O)O)cccc21 [Compound 267],> 100,< 10
COc1ccc2c(O[C@@H]3C[C@H]4C(=O)N[C@]5(C(=O)NS(=O)(=O)C6(C)CC6)C[C@H]5/C=C\CCCCC[C@H](Nc5cccc(NC(=O)N6CCOCC6)c5)C(=O)N4C3)cc(-c3nc(C(C)C)cs3)nc2c1C [Compound 127],< 10,< 10
COc1ccc2c(O[C@@H]3C[C@H]4C(=O)N[C@]5(C(=O)NS(=O)(=O)C6(C)CC6)C[C@H]5/C=C\CCCCC[C@H](Nc5cccc(C(=O)N6C[C@@H](C)O[C@@H](C)C6)c5)C(=O)N4C3)cc(-c3nc(C(C)C)cs3)nc2c1C [Compound 120],< 10,< 10
CC(C)n1c(O[C@@H]2C[C@H]3C(=O)N[C@]4(C(=O)NS(=O)(=O)N(C)C)C[C@H]4/C=C\CCCCC[C@H](NC(=O)OC(C)(C)C)C(=O)N3C2)nc2c(-c3nc(CC4CCCCC4)cs3)cccc21 [Compound 1772],10 to 100,< 10

SMILES,EC50 (hepatitis C replicon) [nM],IC50 (NS3/NS4 complexes) [nM]
CC(C)n1c(O[C@@H]2C[C@H]3C(=O)N[C@]4(C(=O)NS(=O)(=O)N(C)C)C[C@H]4/C=C\CCCCC[C@H](NC(=O)OC(C)(C)C)C(=O)N3C2)nc2c(-c3nc(C4CC4)cs3)cccc21 [Compound 1776],< 10,< 10
CC(C)n1c(O[C@@H]2C[C@H]3C(=O)N[C@]4(C(=O)NS(=O)(=O)C5(C)CC5)C[C@H]4/C=C\CCCCC[C@H](NC(=O)OC(C)(C)C)C(=O)N3C2)nc2c(-c3nc(Cc4ccccc4F)cs3)cccc21 [Compound 1720],< 10,< 10
CCOC(=O)N1CCN(C(=O)c2cccc(N[C@H]3CCCCC/C=C\[C@@H]4C[C@@]4(C(=O)NS(=O)(=O)C4(C)CC4)NC(=O)[C@@H]4C[C@@H](Oc5cc(-c6nc(C(C)C)cs6)nc6c(C)c(OC)ccc56)CN4C3=O)c2)CC1 [Compound 108],< 10,< 10
CC(C)n1c(O[C@@H]2C[C@H]3C(=O)N[C@]4(C(=O)NS(=O)(=O)N(C)C)C[C@H]4/C=C\CCCCC[C@H](NC(=O)OC(C)(C)C)C(=O)N3C2)nc2c(N)cccc21 [Compound 1419],< 10,< 10
CC(C)c1cccc2c1nc(O[C@@H]1C[C@H]3C(=O)N[C@]4(C(=O)NS(=O)(=O)N(C)C)C[C@H]4/C=C\CCCCC[C@H](NC(=O)OC(C)(C)C)C(=O)N3C1)n2C(C)C [Compound 288],< 10,< 10
CC(C)c1nc(-c2cccc3c2nc(O[C@@H]2C[C@H]4C(=O)N[C@]5(C(=O)NS(=O)(=O)N(C)C)C[C@H]5/C=C\CCCCC[C@H](Nc5ccccc5)C(=O)N4C2)n3C(C)C)sc1C(C)C [Compound 1218],> 100,< 10
CC(C)n1c(O[C@@H]2C[C@H]3C(=O)N[C@]4(C(=O)NS(=O)(=O)N(C)C)C[C@H]4/C=C\CCCCC[C@H](NC(=O)OC(C)(C)C)C(=O)N3C2)nc2c(C(=O)NCc3ccccc3)cccc21 [Compound 283],< 10,< 10
COc1ccc2c(O[C@@H]3C[C@H]4C(=O)N[C@]5(C(=O)NS(=O)(=O)C6CC6)C[C@H]5/C=C\CCCCN(c5ccccc5)C(=O)[C@@H]4C3)cc(-c3nc(C(C)C)cs3)nc2c1C [Compound 1601],> 100,< 10
COc1ccc(-c2csc(-c3cccc4c3nc(O[C@@H]3C[C@H]5C(=O)N[C@]6(C(=O)NS(=O)(=O)N(C)C)C[C@H]6/C=C\CCCCC[C@H](NC(=O)OC(C)(C)C)C(=O)N5C3)n4C(C)C)n2)cc1 [Compound 1752],10 to 100,< 10
Cc1sc(-c2c(F)ccc3c2nc(O[C@@H]2C[C@H]4C(=O)N[C@]5(C(=O)NS(=O)(=O)N(C)C)C[C@H]5/C=C\CCCCC[C@H](NC(=O)OC(C)(C)C)C(=O)N4C2)n3C(C)C)nc1C(C)C [Compound 1219],< 10,< 10
CCCc1nc(-c2cccc3c2nc(O[C@@H]2C[C@H]4C(=O)N[C@]5(C(=O)NS(=O)(=O)N(C)C)C[C@H]5/C=C\CCCCC[C@H](NC(=O)OC(C)(C)C)C(=O)N4C2)n3C(C)C)oc1C [Compound 1206],< 10,< 10
CC(C)n1cnc2cnc(O[C@@H]3C[C@H]4C(=O)N[C@]5(C(=O)NS(=O)(=O)C6CC6)C[C@H]5/C=C\CCCCC[C@H](NC(=O)OC(C)(C)C)C(=O)N4C3)nc21 [Compound 505],> 100,< 10
CCNC(=O)c1cccc2c1nc(O[C@@H]1C[C@H]3C(=O)N[C@]4(C(=O)NS(=O)(=O)N(C)C)C[C@H]4/C=C\CCCCC[C@H](NC(=O)OC(C)(C)C)C(=O)N3C1)n2C(C)C [Compound 280],< 10,< 10
CN(C)S(=O)(=O)NC(=O)[C@@]12C[C@H]1/C=C\CCCCC[C@H](NC(=O)OC(C)(C)C)C(=O)N1C[C@H](Oc3nc4ccccc4n3-c3ccccc3)C[C@H]1C(=O)N2 [Compound 207],< 10,< 10
COc1ccc(Cc2csc(-c3cccc4c3nc(O[C@@H]3C[C@H]5C(=O)N[C@]6(C(=O)NS(=O)(=O)C7(C)CC7)C[C@H]6/C=C\CCCCC[C@H](NC(=O)OC(C)(C)C)C(=O)N5C3)n4C(C)C)n2)cc1OC [Compound 1723],< 10,< 10
CC(C)n1c(O[C@@H]2C[C@H]3C(=O)N[C@]4(C(=O)NS(=O)(=O)C5(C)CC5)C[C@H]4/C=C\CCCCC[C@H](Nc4ccc(F)cc4)C(=O)N3C2)nc2c(-c3nc(C4CCCC4)cs3)cccc21 [Compound 1728],> 100,< 10
